Laboratory results as given in patent US20220348558A1, “INHIBITORS OF ENCEPHALITIC ALPHAVIRUSES” (priority 2019, published 2022).

How the values were obtained:
WEEV California = assay: microbe, parasite or virus in culture; type: cell-based; details: Western equine encephalitis virus, Vero 76, 48 h, read-out: WEEV California EC50 nM
VEEV TC83 = assay: microbe, parasite or virus in culture; type: cell-based; details: Venezuelan equine encephalitis virus, Vero 76, 48 h, read-out: VEEV TC83 EC50 nM

| SMILES | EC50 (WEEV California) [nM] | EC50 (VEEV TC83) [nM] |
| --- | --- | --- |
| N#Cc1cc(-c2ccc(C(F)(F)F)nc2)c2nc([C@H]3CCCN3)n(-c3ccc(O)c(F)c3)c(=O)c2c1 [Example 168, (R)-3-(3-fluoro-4-hydroxyphenyl)-4-oxo-2-(pyrrolidin-2-yl)-8-(6-(trifluoromethyl)pyridin-3-yl)-3,4-dihydroquinazoline-6-carbonitrile] | 151 to 500 | 51 to 150 |
| COc1ccc(-n2c([C@@H]3CCCN3)nc3c(C(F)(F)F)cc(C#N)cc3c2=O)cc1 [Example 75, (S)-3-(4-methoxyphenyl)-4-oxo-2-(pyrrolidin-2-yl)-8-(trifluoromethyl)-3,4-dihydroquinazoline-6-carbonitrile] | 51 to 150 | 51 to 150 |
| COc1ccc(-n2c([C@H]3CCCN3)nc3c(-c4ccc(F)nc4)cc(C#N)cc3c2=O)cc1F [Example 99, (R)-3-(3-fluoro-4-methoxyphenyl)-8-(6-fluoropyridin-3-yl)-4-oxo-2-(pyrrolidin-2-yl)-3,4-dihydroquinazoline-6-carbonitrile] | 1 to 50 | 1 to 50 |
| COc1ccc(-n2c([C@H]3CCCN3)nc3cc(F)c(C#N)cc3c2=O)cc1 [Example 34, (R)-7-fluoro-3-(4-methoxyphenyl)-4-oxo-2-(pyrrolidin-2-yl)-3,4-dihydroquinazoline-6-carbonitrile] | 51 to 150 | 51 to 150 |
| O=c1c2cc([N+](=O)[O-])ccc2nc(C2CCCN2)n1-c1cccc(F)c1 (stereo not drawn) [Example 40, 3-(3-fluorophenyl)-6-nitro-2-(pyrrolidin-2-yl)quinazolin-4 (3H)-one] | 501 to 1000 | 1 to 50 |
| CNCc1nc2ccc([N+](=O)[O-])cc2c(=O)n1-c1ccc(OC)cc1 [Example 210, 3-(4-methoxyphenyl)-2-((methylamino)methyl)-6-nitroquinazolin-4 (3H)-one] | > 1000 | > 1000 |
| COc1ccc(-n2c(-c3ccccn3)nc3c(-c4ccc(C)nc4)cc(C#N)cc3c2=O)cc1F [Example 196, 3-(3-fluoro-4-methoxyphenyl)-8-(6-methylpyridin-3-yl)-4-oxo-2-(pyridin-2-yl)-3,4-dihydroquinazoline-6-carbonitrile] | > 1000 | > 1000 |
| COc1ccc(-n2c([C@H]3C[C@H](O)CN3)nc3c(-c4ccc(C)nc4)cc(C#N)cc3c2=O)cc1F [Example 122, 3-(3-fluoro-4-methoxyphenyl)-2-((2R,4S)-4-hydroxypyrrolidin-2-yl)-8-(6-methylpyridin-3-yl)-4-oxo-3,4-dihydroquinazoline-6-carbonitrile] | 51 to 150 | 1 to 50 |
| COc1ccc(-n2c([C@H]3CCCN3C)nc3c(C)cc([N+](=O)[O-])cc3c2=O)cc1F [Example 71, (R)-3-(3-fluoro-4-methoxyphenyl)-8-methyl-2-(1-methylpyrrolidin-2-yl)-6-nitroquinazolin-4 (3H)-one] | 51 to 150 | 51 to 150 |
| COc1ccc(-n2c([C@H]3CCCN3)nc3c(Br)cc(C#N)cc3c2=O)cc1F [Example 96, (R)-8-bromo-3-(3-fluoro-4-methoxyphenyl)-4-oxo-2-(pyrrolidin-2-yl)-3,4-dihydroquinazoline-6-carbonitrile] | 1 to 50 | 1 to 50 |
| COc1c(F)cc(-n2c(C3CCCN3)nc3c(-c4ccc(CO)nc4)cc(C#N)cc3c2=O)cc1F (stereo not drawn) [Example 180, 3-(3,5-difluoro-4-methoxyphenyl)-8-(6-(hydroxymethyl)pyridin-3-yl)-4-oxo-2-(pyrrolidin-2-yl)-3,4-dihydroquinazoline-6-carbonitrile] | 1 to 50 | 1 to 50 |
| Cc1cc(-c2cc(C#N)cc3c(=O)n(-c4cc(F)c(N5CC6(COC6)C5)c(F)c4)c(C4CCCN4)nc23)cc(C)n1 (stereo not drawn) [Example 163, 3-(3,5-difluoro-4-(2-oxa-6-azaspiro[3.3]heptan-6-yl)phenyl)-8-(2,6-dimethylpyridin-4-yl)-4-oxo-2-(pyrrolidin-2-yl)-3,4-dihydroquinazoline-6-carbonitrile] | > 1000 | > 1000 |
| COc1ccc(-n2c([C@@H]3CCCN3C)nc3ccc([N+](=O)[O-])cc3c2=O)cc1 [Example 13, (S)-3-(4-methoxyphenyl)-2-(1-methylpyrrolidin-2-yl)-6-nitroquinazolin-4 (3H)-one] | 51 to 150 | 1 to 50 |
| COc1ccc(-n2c([C@H]3CCCN3)nc3c(F)cc(C#N)cc3c2=O)cc1 [Example 78, (R)-8-fluoro-3-(4-methoxyphenyl)-4-oxo-2-(pyrrolidin-2-yl)-3,4-dihydroquinazoline-6-carbonitrile] | 51 to 150 | 51 to 150 |
| COc1ccc(-n2c(C3CCCN3)nc3c(-c4ccc(C(C)=O)nc4)cc(C#N)cc3c2=O)cc1F (stereo not drawn) [Example 129, 8-(6-acetylpyridin-3-yl)-3-(3-fluoro-4-methoxyphenyl)-4-oxo-2-(pyrrolidin-2-yl)-3,4-dihydroquinazoline-6-carbonitrile] | 1 to 50 | 1 to 50 |
| COc1ccc(-n2c([C@H]3CCCN3)nc3c(-c4ccncc4)cc([N+](=O)[O-])cc3c2=O)cc1F [Example 82, (R)-3-(3-fluoro-4-methoxyphenyl)-6-nitro-8-(pyridin-4-yl)-2-(pyrrolidin-2-yl) quinazolin-4 (3H)-one] | 1 to 50 | 1 to 50 |
| COc1ccc(-n2c([C@H]3C[C@H](F)CN3)nc3c(C)cc([N+](=O)[O-])cc3c2=O)cc1F [Example 62, 2-((2R,4S)-4-fluoropyrrolidin-2-yl)-3-(3-fluoro-4-methoxyphenyl)-8-methyl-6-nitroquinazolin-4 (3H)-one] | 51 to 150 | 51 to 150 |
| COc1ccc(-n2c([C@@H]3C[C@@H](F)CN3)nc3c(C)cc([N+](=O)[O-])cc3c2=O)cc1 [Example 63, 2-((2S,4R)-4-fluoropyrrolidin-2-yl)-3-(4-methoxyphenyl)-8-methyl-6-nitroquinazolin-4 (3H)-one] | > 1000 | > 1000 |
| COc1c(F)cc(-n2c(C34CC(CN3)C4)nc3c(-c4cnc(C)c(C)c4)cc(C#N)cc3c2=O)cc1F [Example 176, 2-(2-azabicyclo[2.1.1]hexan-1-yl)-3-(3,5-difluoro-4-methoxyphenyl)-8-(5,6-dimethylpyridin-3-yl)-4-oxo-3,4-dihydroquinazoline-6-carbonitrile] | 1 to 50 | 1 to 50 |
| COc1ccc(-n2c(C3CCCN3)nc3c(-c4ccc(N5CCOCC5)cc4)cc(C#N)cc3c2=O)cc1F (stereo not drawn) [Example 153, 3-(3-Fluoro-4-methoxyphenyl)-8-(4-morpholinophenyl)-4-oxo-2-(pyrrolidin-2-yl)-3,4-dihydroquinazoline-6-carbonitrile] | 1 to 50 | 1 to 50 |
| COc1ccc(-n2c(-c3cnco3)nc3c(-c4ccc(C)nc4)cc(C#N)cc3c2=O)cc1F [Example 198, 3-(3-fluoro-4-methoxyphenyl)-8-(6-methylpyridin-3-yl)-2-(oxazol-5-yl)-4-oxo-3,4-dihydroquinazoline-6-carbonitrile] | > 1000 | > 1000 |
| COc1c(F)cc(-n2c(C34CC(CN3)C4)nc3c(-c4ccc(C)nc4)cc(C#N)cc3c2=O)cc1F [Example 175, 2-(2-azabicyclo[2.1.1]hexan-1-yl)-3-(3,5-difluoro-4-methoxyphenyl)-8-(6-methylpyridin-3-yl)-4-oxo-3,4-dihydroquinazoline-6-carbonitrile] | 51 to 150 | 1 to 50 |
| COCCOc1c(F)cc(-n2c(C3CCCN3)nc3c(-c4cc(C)nc(C)c4)cc(C#N)cc3c2=O)cc1F (stereo not drawn) [Example 162, 3-(3,5-difluoro-4-(2-methoxyethoxy)phenyl)-8-(2,6-dimethylpyridin-4-yl)-4-oxo-2-(pyrrolidin-2-yl)-3,4-dihydroquinazoline-6-carbonitrile] | 51 to 150 | 51 to 150 |
| COc1ccc(-n2c(-c3cocn3)nc3c(-c4ccc(C)nc4)cc(C#N)cc3c2=O)cc1F [Example 197, 3-(3-fluoro-4-methoxyphenyl)-8-(6-methylpyridin-3-yl)-2-(oxazol-4-yl)-4-oxo-3,4-dihydroquinazoline-6-carbonitrile] | > 1000 | 501 to 1000 |
| COc1ccc(-n2c([C@@H]3C[C@@H](F)CN3)nc3c(C)cc([N+](=O)[O-])cc3c2=O)cc1F [Example 64, 2-((2S,4R)-4-fluoropyrrolidin-2-yl)-3-(3-fluoro-4-methoxyphenyl)-8-methyl-6-nitroquin-azolin-4 (3H)-one] | > 1000 | > 1000 |
| O=c1c2cc([N+](=O)[O-])ccc2nc([C@H]2CCCN2)n1-c1cccc(OC(F)(F)F)c1 [Example 45, (R)-6-nitro-2-(pyrrolidin-2-yl)-3-(3-(trifluoromethoxy)phenyl)quinazolin-4 (3H)-one] | > 1000 | > 1000 |
| COc1ccc(-n2c([C@@H]3CCCN3)nc3c(C(F)(F)F)cc(C#N)cc3c2=O)cc1F [Example 77, (S)-3-(3-fluoro-4-methoxyphenyl)-4-oxo-2-(pyrrolidin-2-yl)-8-(trifluoromethyl)-3,4-dihydroquinazoline-6-carbonitrile] | 1 to 50 | 51 to 150 |
| COc1ccc(-n2c(C3CCCN3)nc3c(N4CCC(N5CCOCC5)CC4)cc(C#N)cc3c2=O)cc1F (stereo not drawn) [Example 114, 3-(3-fluoro-4-methoxyphenyl)-8-(4-morpholinopiperidine-1-yl)-4-oxo-2-(pyrrolidin-2-yl)-3,4-dihydroquinazoline-6-carbonitrile] | 51 to 150 | 1 to 50 |
| COc1c(F)cc(-n2c([C@H]3CCCN3)nc3c(-c4ccc(C(F)(F)F)nc4)cc(C#N)cc3c2=O)cc1F [Example 118, (R)-3-(3,5-difluoro-4-methoxyphenyl)-4-oxo-2-(pyrrolidin-2-yl)-8-(6-(trifluoromethyl)pyridin-3-yl)-3,4-dihydroquinazoline-6-carbonitrile] | 51 to 150 | 1 to 50 |
| COc1ccc(-n2c(-c3ccon3)nc3c(-c4ccc(C)nc4)cc(C#N)cc3c2=O)cc1F [Example 199, 3-(3-fluoro-4-methoxyphenyl)-2-(isoxazol-3-yl)-8-(6-methylpyridin-3-yl)-4-oxo-3,4-dihydroquinazoline-6-carbonitrile] | > 1000 | 501 to 1000 |
